According to patent US6429286B1, “Immunoregulatory molecules for costimulatory signal transduction” (priority 1997, dated 2002):
No end group written: not given here.

T1: mouse CD80-Ig (Mus musculus, UniProt Q00609)
T1 construct: Ig (immunoglobulin fusion partner); made in house; host or cells: COS7 cells (pCDM8 plasmid), purified on Protein A Sepharose
T1 sequence (Q00609 38-246 limits assumed): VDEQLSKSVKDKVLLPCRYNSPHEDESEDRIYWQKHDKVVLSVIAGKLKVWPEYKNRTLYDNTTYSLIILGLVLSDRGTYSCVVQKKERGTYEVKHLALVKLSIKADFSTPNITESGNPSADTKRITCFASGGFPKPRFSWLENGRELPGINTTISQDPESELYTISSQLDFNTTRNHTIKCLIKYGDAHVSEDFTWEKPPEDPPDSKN

T2: human CD80-Ig (Homo sapiens, UniProt P33681)
T2 construct: a fused gene of human CD80 extracellular domain and human Ig Cγl domain; made in house; host or cells: COS7 cells (pCDM8 plasmid, DEAE-dextran), purified on Protein A Sepharose
T2 sequence (P33681 35-242 limits assumed): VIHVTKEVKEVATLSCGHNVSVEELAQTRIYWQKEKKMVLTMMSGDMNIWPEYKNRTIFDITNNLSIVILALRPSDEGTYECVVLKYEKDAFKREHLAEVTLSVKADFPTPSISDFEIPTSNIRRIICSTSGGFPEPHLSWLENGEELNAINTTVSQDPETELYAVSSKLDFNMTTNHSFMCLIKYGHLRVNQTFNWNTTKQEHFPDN

B1: phage expressing F2 sequence (peptide)
chain: ADGAGFVCSGIFAVGVGRCGAAGAETVESCLAKPHTENSFTNVWKDDKTLDRYANYEGCLWNATGVVVCTGDETQCYGTWVPIGLAIPENEGGGSEGGGSEGGGSEGGGTKPPEYGDTPIPGYTYINPLDGTYPPGTEQNPANPNPSLEESQPLNTFMFQNNRFRNRQGALTVYTGTVTQGTDPVKTYYQYTPVSSKAMYDAYWNGKFRDCAFHSGFNEDPFVCEYQGQSSDLPQPPVNAGGGSGGGSGGGSEGGGSEGGGSEGGGSEGGGSGGGSGSGDFDYEKMANANKGAMTENADENALQSDAKGKLDSVATDYGAAIDGFIGDVSGLANGNGATGDFAGSNSQMAQVGDGDNSPLMNNFRQYLPSLPQSVECRPYVFGAGKPYEFSIDCDKINLFRGVFAFLLYVATFMYVFSTFANILRNKES
notes: also called F2 phage

Key:
[1] = test system: anti-mouse CTLA-4 monoclonal antibody; experiment: ELISA: reactivity of plate-coated phage clones with the anti-mouse CTLA-4 monoclonal antibody; type: binding, hamster; details: phage 4x10^9 virions/well, antibody 200 ng/ml, FIG. 2 and 3
Description: The obtained 58 phage clones were subjected to primary screening with ELISA. A 96 well ELISA plate (Sumitomo Bakelite, Tokyo) was coated with each phage (4×10^9 virions/well/40 μl) purified as described by Smith et al. (G. P. Smith, Method in Enzymology, Vol. 217, p.228-257 (1993), Academic Press) at 4° C. overnight. The plate was washed with TBST and was blocked with 100 μl/well of 50 mM Tris-HCl, pH 7.5, 150 mM NaCl supplemented with 0.02% NaN3 and 1% BSA at room temperature for 2 hours. After washing with TBST, the plate was added with the anti-mouse CTLA-4 monoclonal antibody (200 ng/ml/well/100 μl) and reacted at room temperature for 1 hour. After washing with TBST; the plate was reacted with anti-hamster IgG antibody (Zymet, California) labeled with alkaline phosphatase diluted to 250-fold with TBS at room temperature for 1 hour. After washing, the plate was added with the substrate sodium p-nitrophenylphosphate hexahydrate (Wako Junyaku, Osaka) was added and absorbance at 405 nm was measured.
Whether each of the motifs as shown in Example 4 specifically binds to the anti-mouse CTLA-4 monoclonal antibody was investigated. A degree of specificity was determined by ELISA as described in Example 3. As a negative control, anti-mouse CD28 antibody (Phamingen, San Diego), having the same isotype with the anti-mouse CTLA-4 monoclonal antibody, and hamster IgG were used. Anti-hamster IgG antibody was used as a detection antibody. […] E. coli producing the phage expressing F2 sequence and the phage expressing F6 sequence have been deposited by the applicant in accordance with the Budapest Treaty as Escherichia coli F2 [FERM BP-6009] and as Escherichia coli F6 [FERM BP-60103], respectively, at National Institute of Bioscience and Human-Technology Agency of Industrial Science and Technology, 1-3, Higashi 1-chome, Tsukuba-shi, Ibaraki-ken, 305, Japan, on Apr. 14, 1997 (original deposition date: transferred from FERM P-16192 and FERM P-16193, respectively, to the deposition under the Budapest Treaty on Jul. 4, 1997).

mouse CD80-Ig = molecular target: T1, mouse CD80-Ig; experiment: ELISA: binding of plate-coated phages to mouse CD80-Ig; details: for binding to mouse CD80-Ig: ELISA, 200 to 1000 ng/35 μl mouse CD80-Ig, FIG. 5
Description: (§1) The binding activity was measured by ELISA. A 96-well ELISA plate (Sumitomo Bakelite, Tokyo) was coated with phages expressing F2 or F6 sequence (4×10^9 virions/well/40 pi) at 4° C. overnight and then blocked with 50 mM Tris-HCl, pH 7.5, 150 mM NaCl (TBS) supplemented with 1% BSA at room temperature for 2 hours. After washing the plate with TBST, the plate was added with 200 to 1000 ng/35 μl of mouse CD80-Ig diluted with PBS and reacted at room temperature for 1 hour. After washing with TBST, the plate was reacted with alkali phosphatase-labeled anti-human IgG antibody (Zymet, California) diluted with TBS by 100-fold at room temperature for 1 hour. After washing, to the plate was added the substrate sodium p-nitrophenylphosphate hexahydrate and absorbance at 405 nm was measured.

T cells (spleen cells) [2] = experiment: T cell growth stimulating activity in spleen cells of mice immunized with egg lysozyme; type: cell-based, BALB/c mice; details: egg lysozyme 3 μg/ml plus phage 1 μg/ml added separately, W. T. phage as negative control, FIG. 8
Description: In Example 6, there were used a phage protein as a primary antigen stimulation and the phage protein with expressed F2 or F6 sequence as a secondary stimulation in vitro. That is, in Example 6, a phage protein was used as an antigen and a secondary stimulation was made in a condition where both said antigen and F2 or F6 sequence are on the same particle. In this Example, however, the activity to stimulate the growth of T cells of phages expressing F2 or F6 as described in Example 6 was investigated wherein an antigen irrelevant to the phage (egg lysozyme) was used as a primary antigen stimulation and the egg lysozyme plus the phage particles expressing F2 or F6 sequence were separately added as a secondary stimulation.
Egg lysozyme 10 μg (100 μl/Freund's incomplete adjuvant (FIA)) was subcutaneously injected to BALB/c mice. Four weeks after administration, spleen cells and the relevant lymph nodes were removed from each mouse in a usual manner. Each well of 96-well culture plate was added with the spleen cells at 1.5×10^5 cells/well and with egg lysozyme at 3 μg/ml. Phages expressing F2 or F6 sequence were added at 1 μg/ml either at the same time, 1 day after, or 2 days after, the addition of egg lysozyme. As a negative control, W. T. phage was added. Measurement after culture was as described in Example 6.

T cells (spleen cells) [3] = experiment: Effect of CD80-Ig or CD86-Ig on the T cell growth stimulating activity of the phages; type: cell-based, BALB/c mice; details: phage 1 μg/ml, egg lysozyme 3 μg/ml; for effect of CD80-Ig on T cell growth stimulating activity: CD80-Ig 0-1 μg/ml, FIG. 9 and 10
Description: Each phage expressing F2 or F6 sequence reacted with anti-mouse CTLA-4 monoclonal antibody as shown in Example 5. Phage expressing F2 specifically bound to mouse CD80-Ig as shown in Example 7.
Egg lysozyme 50 μg (100 μl/PBS) was intraperitoneally administered to BALB/c mice. Four weeks after administration, spleen cells were removed from each mouse in a usual manner. In this Example, to each well of a 96-well culture plate were added the spleen cells at 1.5×10^5 cells/well and egg lysozyme at 3 μg/ml together with phage expressing F2 or F6 (1 μg/ml) and CD80-Ig or CD86-Ig or human Ig as a negative control at 0-1 μg/ml. The T cell growth stimulating activity was determined as described in Example 6.

[4] = test system: anti-HBsAg antibody production; experiment: Anti-HBsAg antibody production in mice immunized with yHBsAg together with phages; type: in vivo, BALB/c mice; details: i.p. yHBsAg 10 μg with phage, boost at 15 days, blood three weeks after immunization, FIG. 11
Description: BALB/c mice (four animals per group) were administered intraperitoneally with either 10 μg (100 μl/PBS) of recombinant HBsAg produced in yeast (yHBsAg; Juridical Foundation The Chemo-Sero-Therapeutic Research Institute) alone or in combination with phages expressing F2 or F6 (10: pg/100 μl). Fifteen days after primary immunization, th-e same samples were administered intraperitoneally., Three weeks after primary immunization, each mouse was bled. Serum was diluted with PBS-to 50-fold, 200-fold and 800-fold and then anti-HBsAg antibody titer was measured with Ausab EIA kit (Abbott Laboratories).
The antibody titer was measured using a positive control attached to the kit as a standard.

human CD80-Ig = molecular target: T2, human CD80-Ig; experiment: ELISA: binding of phage expressing F2 sequence to human CD80-Ig; details: mouse CTLA-4-Ig and human IgG as negative control, FIG. 7
Description: as §1
Then, whether phage expressing F2 sequence specifically binds to human CD80-Ig was investigated in this Example as described in Example 7, FIG. 5.
Human CD80-Ig was prepared by constructing a fused gene of human CD80 extracellular domain and human Ig Cγl domain as described by Linsley et al. (J. Exp. Med. Vol. 173, p.721-730 (1991)). An expression plasmid pCDM8 incorporating the fused gene fragment was introduced into COS7 cells by DEAE-dextran method. After culturing for 72 hours, human CD80-Ig was purified from culture supernatant with Protein A Sepharose (Pharmacia). […]

T cells (spleen cells) [5] = experiment: T cell growth, [3H]-thymidine take-up by spleen cells of mice primed with W. T. phage; type: cell-based, BALB/c mice; details: phage 0.015 to 5 μg/ml, three days culture, FIG. 4
Description: BALB/c mice (6 weeks old; four animals per group) were used in an experiment and the phages were purified as described by Smith et al. (G. P. Smith, Method in Enzymology, Vol. 217, p.228-257 (1993), Academic Press). An amount of the phages was measured using protein assay kit (BioRad) with bovine serum albumin as a standard and expressed as a protein concentration.
First, for antigen, stimulation, BALB/c mice were administered intraperitoneally with 10 μg (200 μl/PBS) of phage (W. T.) not expressing pIII protein. Four weeks after the administration, spleen cells were removed from each mouse in the usual manner. The spleen cells were added to each well of 96-well culture plate at 1.5×10^5 cells/well. To each well was added purified W. T. or phages expressing any of F1 to F6 sequence at a final concentration of 0.015 to 5 μg/ml to make a total volume of 200 μl (RPMS 1640 medium containing 10% FCS) Triplicates were used for each sample. After incubating these samples on ice for 30 minutes, the cells were cultured under condition of 5% CO2 at 37° C. for three days. Eighteen hours before completion of culture, the cells were pulse-labeled with [^3H]-thymidine (0.5 μCi/well). The cells were harvested with a cell harvester and a take-up of [^3H]-thymidine was measured with a liquid scintillation counter.

mouse CTLA-4-Ig = molecular target: T3, mouse CTLA-4-Ig (mouse, UniProt P09793 36-161); experiment: ELISA, F2 phage coated, reacted with mouse CD80-Ig, mouse CTLA-4-Ig and human IgG
T3 construct: also called CTLA-4-Ig chimeric molecule; not shown: Ig part of the chimera; not described for this construct

Molecule	reactivity with anti-mouse CTLA-4 monoclonal antibody [1]	binding to mouse CD80-Ig (mouse CD80-Ig)	T cell growth stimulating activity, egg lysozyme as antigen (T cells (spleen cells) [2])	effect of CD80-Ig on T cell growth stimulating activity (T cells (spleen cells) [3])	anti-HBsAg antibody titer relative to group immunized with HBsAg alone (= 1) [4]	growth of T cells as compared to W. T. phage (T cells (spleen cells) [5])	other results
APGVRLGCAVLGRYC (cysteine pairing not given here) [F6]	reacted most strongly	do not bind to CD80/CD86 molecules	exhibited the antigen-specific activity to stimulate the growth of T cells	did not inhibit	11.9	–	effect of CD86-Ig on T cell growth stimulating activity (T cells (spleen cells) [3]; CD86-Ig 0-1 μg/ml, FIG. 10): did not inhibit
GFVCSGIFAVGVGRC (cysteine pairing not given here) [F2]	reacted most strongly	bound to mouse CD80-Ig in a concentration-dependent manner	exhibited the antigen-specific activity to stimulate the growth of T cells	greatly inhibited	17.9	–	binding specificity to mouse CD80-Ig (mouse CD80-Ig; ELISA against mouse CD80-Ig, mouse CTLA-4-Ig and human IgG, FIG. 6): specifically reacted with mouse CD80-Ig; binding to human CD80-Ig (human CD80-Ig): specifically bound to human CD80-Ig
GLHSRCHIGRDCSSA (cysteine pairing not given here) [F1]	reacted weakly	–	–	–	–	approximately equivalent to that with W. T. phage	–
HYGDCRYDLGSCRGA (cysteine pairing not given here) [F4]	reacted weakly	–	–	–	–	approximately equivalent to that with W. T. phage	–
SCVFHHSGRYWGRCV (cysteine pairing not given here) [F3]	reacted more weakly	–	–	–	–	approximately equivalent to that with W. T. phage	–
B1	–	–	–	–	–	–	binding result (mouse CTLA-4-Ig): no binding
